Read-outs that look alike come from different tables or passages of the source.
Assays:
Arabidopsis seeds [1] = assay: Arabidopsis reversal assay with antidote compounds; format: in vivo; conditions: for Growth, % of Control: probe compound at 1.5× lethal concentration; for growth without the antidote (in words): probe compound alone, no antidote
Experimental: The solutions are filter sterilized prior to addition. FIG. 4 represents a typical set up in a reversion assay for discovering inhibitors of AMP biosynthesis.
The left side (columns 1-3) of the 24-well microtiter plate is designed for controls, and the right side (columns 4-6) are designated for one probe compound. […] Rows B,C and D are supplemented with three doses of an antidote for the control and probe compound. […] The three doses are 50,100 and 150 μl respectively.
Forty ml of Arabidopsis growth media as described in Example 1 is sterilized and allowed to cool to about 45° C. A probe compound (at 1.5× lethal concentration) is added to columns 4 through 6 (right half of the plate). Media is distributed at 1.0 ml per well to all wells. Sterile seeds are added to each well as described above. As in Example 1, the plate is incubated and growth is scored.

ADSS from wheat germ = molecular target: T1, ADSS from wheat germ (Triticum aestivum, UniProt O24396); assay: ADSS enzyme assay, wheat germ ADSS; format: biochemical; conditions: for product formation by ADSS: compound at 100 μM, wheat germ ADSS (not shown)
T1 construct: from tissue
T1 sequence (O24396 whole entry): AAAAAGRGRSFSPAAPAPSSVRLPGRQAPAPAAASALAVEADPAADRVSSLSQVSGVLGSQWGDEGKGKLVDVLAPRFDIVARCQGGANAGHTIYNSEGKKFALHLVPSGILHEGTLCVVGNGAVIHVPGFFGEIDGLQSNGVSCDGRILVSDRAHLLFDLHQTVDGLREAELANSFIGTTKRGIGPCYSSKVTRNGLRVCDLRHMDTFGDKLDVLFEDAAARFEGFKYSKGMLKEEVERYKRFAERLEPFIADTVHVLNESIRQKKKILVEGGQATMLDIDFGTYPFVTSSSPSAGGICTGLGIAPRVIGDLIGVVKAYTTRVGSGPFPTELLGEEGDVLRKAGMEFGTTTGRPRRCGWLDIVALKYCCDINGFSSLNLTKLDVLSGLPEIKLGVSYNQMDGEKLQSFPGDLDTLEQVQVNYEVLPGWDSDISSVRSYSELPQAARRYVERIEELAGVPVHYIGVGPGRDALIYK
Experimental: ADSS is obtained from 4-5 day old, etiolated seedlings of Zea mays. Seedlings are homogenized in a Waring blender with an equal volume (grams of tissue=mls of buffer) of extraction buffer containing 50 mM EPPS, pH 7.5, 5 mM MgCl2, 0.1 mM EDTA, 5 mM sodium bisulfite, 5 mM DTT, 0.1 mM phenylmethanesulfonyl fluoride and 10% glycerol. The extract is expressed through Miracloth (Calbiochem, La Jolla, Calif.) sandwiched between layers of cheesecloth. To precipitate phenolics and nucleic acids, 0.2 to 0.4% w/v protamine sulfate is added to the extract. The extract is stirred for 30 minutes, and then centrifuged at 45,000×G for 60 minutes. The resulting supernatant is fractionated with ammonium sulfate. Proteins are retained which precipitate at concentrations of ammonium sulfate greater than 45% saturation, but less than 55% saturation. Similar methods are used to isolate ADSS from wheat germ, E. coli and rat liver. ADSS activity is further purified by subjecting the preparation to DEAE cellulose chromatography. The column is equilibrated with chromatography buffer consisting of 50 mM EPPS, pH 7.5, 10% glycerol, 0.1 mM EDTA, 5 mM MgCl2 and 1 mM DTT. After loading the enzyme preparation, the column is washed with two bed volumes of the chromatography buffer, then eluted with a linear, 10-bed-volume gradient of 0 to 0.4M KCl dissolved in the same buffer. The peak of ADSS activity elutes at a KCl concentration of about 150 mM. […]
(§1) ADSS is assayed by anion exchange HPLC and by a continuous spectrophotometric assay. […] The column eluate is monitored at 270 nm using a Perkin-Elmer LC 480 diode array detector. Integrated peaks are quantified from standard curves. Identity of the products of the ADSS reaction, GDP and adenylosuccinate, are determined by comparing their retention times and spectra with those of authentic standards, purchased from Sigma Chemical Co.
(§2) For the spectrophotometric assay, reaction mixtures are the same as above, except that the volume is doubled. […] This method of quantification was validated using the HPLC method.

ADSS from E. coli = molecular target: T2, ADSS from E. coli (Escherichia coli, UniProt P0A7D4); assay: ADSS enzyme assay, E. coli ADSS; format: biochemical; conditions: E. coli ADSS (FIG. 6); for product formation by ADSS: compound at 100 μM
T2 construct: endogenous in cells; host or cells: E. coli
T2 sequence (P0A7D4 2-432): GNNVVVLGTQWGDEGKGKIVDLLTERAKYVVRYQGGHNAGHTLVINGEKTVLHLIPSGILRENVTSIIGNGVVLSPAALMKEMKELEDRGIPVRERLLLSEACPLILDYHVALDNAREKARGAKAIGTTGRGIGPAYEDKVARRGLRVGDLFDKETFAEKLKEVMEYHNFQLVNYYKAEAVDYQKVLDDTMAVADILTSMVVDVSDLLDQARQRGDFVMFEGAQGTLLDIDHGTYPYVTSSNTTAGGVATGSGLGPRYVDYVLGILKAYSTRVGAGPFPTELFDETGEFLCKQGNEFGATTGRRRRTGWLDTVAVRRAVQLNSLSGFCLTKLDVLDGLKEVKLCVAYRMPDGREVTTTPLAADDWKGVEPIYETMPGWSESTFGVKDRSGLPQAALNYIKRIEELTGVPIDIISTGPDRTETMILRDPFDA
Experimental: (§3) ADSS is obtained from 4-5 day old, etiolated seedlings of Zea mays. Seedlings are homogenized in a Waring blender with an equal volume (grams of tissue=mls of buffer) of extraction buffer containing 50 mM EPPS, pH 7.5, 5 mM MgCl2, 0.1 mM EDTA, 5 mM sodium bisulfite, 5 mM DTT, 0.1 mM phenylmethanesulfonyl fluoride and 10% glycerol. The extract is expressed through Miracloth (Calbiochem, La Jolla, Calif.) sandwiched between layers of cheesecloth. To precipitate phenolics and nucleic acids, 0.2 to 0.4% w/v protamine sulfate is added to the extract. The extract is stirred for 30 minutes, and then centrifuged at 45,000×G for 60 minutes. The resulting supernatant is fractionated with ammonium sulfate. Proteins are retained which precipitate at concentrations of ammonium sulfate greater than 45% saturation, but less than 55% saturation. Similar methods are used to isolate ADSS from wheat germ, E. coli and rat liver. ADSS activity is further purified by subjecting the preparation to DEAE cellulose chromatography. The column is equilibrated with chromatography buffer consisting of 50 mM EPPS, pH 7.5, 10% glycerol, 0.1 mM EDTA, 5 mM MgCl2 and 1 mM DTT. After loading the enzyme preparation, the column is washed with two bed volumes of the chromatography buffer, then eluted with a linear, 10-bed-volume gradient of 0 to 0.4M KCl dissolved in the same buffer. The peak of ADSS activity elutes at a KCl concentration of about 150 mM. Fractions containing activity are pooled and the proteins concentrated by ultrafiltration. At this stage, the enzyme is suitable for high capacity screening tests that are designed to discover inhibitory compounds. Alternatively, hydrophobic interaction chromatography can be used instead of DEAE-cellulose. This material is optionally further purified by passage through a column of Sephadex G-75 equilibrated with the chromatography buffer described above. The peak of ADSS activity elutes at a retention volume corresponding to a molecular weight of approximately 50,000 Da.
as §1, with “assay. For the former, enzyme is diluted appropriately with 50 mM EPPS, pH 8.3, 10% ethylene glycol, 10 mM potassium phosphate and 1 mM MgCl2 to a volume of 92 μL.” for “assay.”
as §2

ADSS from rat liver = molecular target: T3, ADSS from rat liver (Rattus norvegicus, UniProt D4AEP0); assay: ADSS enzyme assay, rat liver ADSS; format: biochemical; conditions: rat liver ADSS (FIG. 6); for product formation by ADSS: compound at 100 μM
T3 construct: from tissue; host or cells: rat liver
T3 sequence (D4AEP0 1-456): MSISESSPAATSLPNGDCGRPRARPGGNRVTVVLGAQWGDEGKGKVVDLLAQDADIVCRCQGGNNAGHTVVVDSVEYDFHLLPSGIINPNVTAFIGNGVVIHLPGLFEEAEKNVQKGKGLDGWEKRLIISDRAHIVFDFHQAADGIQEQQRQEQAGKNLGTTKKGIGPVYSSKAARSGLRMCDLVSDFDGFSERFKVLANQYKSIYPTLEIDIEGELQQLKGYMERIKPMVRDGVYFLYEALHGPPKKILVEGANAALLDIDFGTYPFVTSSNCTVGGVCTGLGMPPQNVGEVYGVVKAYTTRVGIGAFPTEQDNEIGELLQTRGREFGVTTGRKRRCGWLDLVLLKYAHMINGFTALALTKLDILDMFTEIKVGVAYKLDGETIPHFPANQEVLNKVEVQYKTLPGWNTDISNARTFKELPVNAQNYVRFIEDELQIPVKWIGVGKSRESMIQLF
Experimental: as §3
as §1, with “assay. For the former, enzyme is diluted appropriately with 50 mM EPPS, pH 8.3, 10% ethylene glycol, 10 mM potassium phosphate and 1 mM MgCl2 to a volume of 92 μL.” for “assay.”
as §2

[2] = molecular target: T4, adenylosuccinate synthetase (ADSS) isolated from maize (Zea mays, UniProt O24578); assay: ADSS enzyme assay (HPLC and spectrophotometric), maize ADSS; format: biochemical; conditions: for product formation by ADSS: compound at 100 μM, maize ADSS (not shown); for time course of ADSS inhibition: spectrophotometric assay (FIG. 7, FIG. 8)
T4 construct: ADSS is obtained from 4-5 day old, etiolated seedlings of Zea mays; from tissue; host or cells: 4-5 day old etiolated maize seedlings
T4 sequence (O24578 45-484): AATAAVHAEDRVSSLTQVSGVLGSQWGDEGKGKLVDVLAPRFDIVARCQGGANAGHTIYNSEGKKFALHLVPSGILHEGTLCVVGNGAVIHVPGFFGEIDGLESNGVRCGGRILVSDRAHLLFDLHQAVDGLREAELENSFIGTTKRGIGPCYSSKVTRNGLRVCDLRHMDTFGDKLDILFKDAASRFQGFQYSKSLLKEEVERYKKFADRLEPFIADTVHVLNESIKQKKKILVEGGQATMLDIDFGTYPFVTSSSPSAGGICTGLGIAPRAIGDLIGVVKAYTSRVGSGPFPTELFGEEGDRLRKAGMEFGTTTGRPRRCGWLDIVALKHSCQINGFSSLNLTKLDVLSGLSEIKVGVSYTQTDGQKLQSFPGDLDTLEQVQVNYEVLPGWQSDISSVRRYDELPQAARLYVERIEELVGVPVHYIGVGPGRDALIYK
Experimental: as §3
ADSS is assayed by anion exchange HPLC and by a continuous spectrophotometric assay. For the former, enzyme is diluted appropriately with 50 mM EPPS, pH 8.3, 10% ethylene glycol, 10 mM potassium phosphate and 1 mM MgCl2 to a volume of 92 μL. […] Reactions are stopped by adding 1 μL of 4N HCl. 95 μL of the reaction mixture is injected to a Hamilton PRP-X100 column equilibrated with 3% acetonitrile. Reactants and products are eluted with a convex gradient (Curve=-2) to 6% 1M potassium phosphate, pH 7, and 12% 2M KCl delivered during a span of 30 min by a Perkin-Elmer 410 BIO pump. The column eluate is monitored at 270 nm using a Perkin-Elmer LC 480 diode array detector. Integrated peaks are quantified from standard curves. Identity of the products of the ADSS reaction, GDP and adenylosuccinate, are determined by comparing their retention times and spectra with those of authentic standards, purchased from Sigma Chemical Co.
For the spectrophotometric assay, reaction mixtures are the same as above, except that the volume is doubled. […] The optical density increases as AS is formed. […] This method of quantification was validated using the HPLC method.

Arabidopsis seeds [3] = assay: Arabidopsis bioassay, determination of the lethal concentration (LC 90); conditions: read-out: lethal concentration (LC 90)
[4] = system: adenylosuccinate lyase (ASL); assay: Assay of adenylosuccinate lyase (ASL); format: biochemical, Zea mays; conditions: 1 mM concentration (data not shown)
Experimental: ASL is obtained from three day old, etiolated seedlings of Zea mays (maize). Seedlings are homogenized in a Waring blender with an equal volume (grams of tissue=mls of buffer) of 20 mM potassium phosphate buffer (KP buffer) containing 1 mM DTT. The slurry is then filtered through a cheese cloth and the filtrate subjected to 100,000×g centrifugation for 60 minutes. The clear supernatant is used for assaying ASL activity.
A typical reaction mixture in 1 mL contains 100-300 μL of ASL and 0.15 mM adenylosuccinate (30 μL of a 5 mM solution in KP buffer), the rest being KP buffer. Disappearance of absorbance at 280 nm is followed as a function of time to determine the rate of ASL activity. Inhibitors when needed are included to a final concentration of 1 mM in the assay mixture to observe the effect on the ASL activity. Compounds hydantocidin, N-acetylhydantocidin, NAP-H and hadacidin had no effect on the rate of ASL activity at 1 mM concentration (data not shown).

[5] = molecular target: T4, adenylosuccinate synthetase (ADSS) isolated from maize; conditions: known from the literature; cited from earlier work
[6] = background statement; cited from earlier work
glutamine synthetase = conditions: background statement; cited from earlier work
[7] = concentration causing 90% or greater growth inhibition vs control, 7 days, about 28° C.
[8] = antidote Adenosine + Guanosine 0.5-5.0 mM
[9] = antidote Cytidine + Uridine 0.5-5.0 mM
[10] = antidote Hypoxanthine 0.5-5.0 mM

Molecule	Growth, % of Control (Arabidopsis seeds [1]; No antidote, 0 mM)	Growth, % of Control (Arabidopsis seeds [1]; antidote AMP 0.5-5.0 mM)	Growth, % of Control (Arabidopsis seeds [1]; antidote Adenine 0.5-5.0 mM)	Growth, % of Control (Arabidopsis seeds [1]; antidote Adenosine 0.5-5.0 mM)	Growth, % of Control (Arabidopsis seeds [1]; antidote Guanine 0.5-5.0 mM)	Growth, % of Control (Arabidopsis seeds [1]; antidote Guanosine 0.5-5.0 mM)	Growth, % of Control (Arabidopsis seeds [1]; antidote IMP 0.5-5.0 mM)	growth without the antidote (in words) (Arabidopsis seeds [1])	product formation by ADSS (ADSS from wheat germ)	product formation by ADSS (ADSS from E. coli)	product formation by ADSS (ADSS from rat liver)	product formation by ADSS [2]	time course of ADSS inhibition [2]	IC90 (Arabidopsis seeds [3]; [7])	effect on the rate of ASL activity [4]	Growth, % of Control (Arabidopsis seeds [1]; antidote ADP 0.5-5.0 mM)	Growth, % of Control (Arabidopsis seeds [1]; antidote ATP 0.5-5.0 mM)	Growth, % of Control (Arabidopsis seeds [1]; [8])	Growth, % of Control (Arabidopsis seeds [1]; [9])	Growth, % of Control (Arabidopsis seeds [1]; [10])	other results
COc1c(C)c2c(c(O)c1C/C=C(\C)CCC(=O)O)C(=O)OC2 [MPA, Mycophenolic Acid]	0%	5%	0%	5%	40%	80%	5%	Growth is not observed	–	–	–	–	–	–	–	–	–	–	–	–	Growth, % of Control (Arabidopsis seeds [1]; antidote GMP 0.5-5.0 mM): 90%
5'-Phospho-N-acetyl-hydantocidin [NAP-H]	0%	100%	65%	80-100%	0%	0%	5%	Growth is not observed	Product is not formed	Product is not formed	Product is not formed	Product is not formed	Inhibition is initially weak, but becomes greater	~8 µM	no effect	100%	40%	80%	0%	0%	inhibition of ADSS (in words) (ADSS from wheat germ; 10 μM, crude (desalted) extract from wheat germ, HPLC assay (FIG. 5)): Inhibition of ADSS; inhibition of ADSS (in words) ([2]; 5 μM, spectrophotometric assay): is confirmed; reversibility of ADSS inhibition ([2]; enzyme incubated with 4 μM for 10 min, then Sephadex G-25): inhibition is reversible
NC(=O)c1ncn([C@@H]2O[C@H](CO)[C@@H](O)[C@H]2O)n1 [TCR, 1,2,4-triazole-3-carboxamide-1-ribose]	–	–	–	–	–	–	–	Growth is not observed	–	–	–	–	–	–	–	–	–	–	–	–	–
O=CN(O)CC(=O)O [hadacidin]	0%	100%	55%	80-100%	0%	0%	5%	Growth is not observed	Product is not formed	Product is not formed	Product is not formed	Product is not formed	not time dependent	–	no effect	100%	40%	80%	0%	0%	mode of ADSS inhibition [5]: competitively with aspartate; IC50 ([2]; "under these conditions", ADSS source not given): 3 µM
O=C1NC(=O)C2(N1)O[C@H](CO)[C@@H](O)[C@H]2O (single isomer, unassigned) [hydantocidin, Hydantocidin]	0%	100%	60%	80-100%	0%	0%	5%	Growth is not observed	–	–	–	–	–	–	no effect	100%	40%	80%	0%	0%	reversal of growth inhibition by aromatic amino acids (in words) [6]: not reversed; inhibition of ADSS (in words) (ADSS from E. coli): neither the E. coli nor the rat liver ADSS are inhibited; inhibition of glutamine synthetase (in words) (glutamine synthetase): not inhibited; inhibition of ADSS (in words) (ADSS from rat liver): neither the E. coli nor the rat liver ADSS are inhibited; IC90 (Arabidopsis seeds [3]; Arabidopsis thaliana, 168 h): ~2 µM; reversal of growth inhibition (in words) (Arabidopsis seeds [1]; antidote IMP, doses 50, 100 and 150 μl): did not reverse growth inhibition; reversal of growth inhibition (in words) (Arabidopsis seeds [1]; antidotes adenosine and AMP, rows B and C, wells 4 through 6): Complete growth is observed; reversal of inhibition at the lethal concentration (in words) (Arabidopsis seeds [1]; in the presence of AMP, ADP or adenine): completely reversed
N-acetyl hydantocidin	0%	100%	60%	80-100%	0%	0%	5%	Growth is not observed	–	–	–	–	–	~12 µM	no effect	100%	40%	80%	0%	0%	inhibition of ADSS (in words) (ADSS from E. coli): neither the E. coli nor the rat liver ADSS are inhibited; inhibition of ADSS (in words) (ADSS from rat liver): neither the E. coli nor the rat liver ADSS are inhibited
